Measurements from patent publication US11739063B2, “DREADD actuators” (The United States of America, as represented by the …, priority 2018, dated 2023).
Entries after “also recorded” stand apart in the source; their conditions may differ. Where two headings read alike, the source gives them in different places.

What was measured:
[1] = biological target: T1, hM4Di (Gi1) (Homo sapiens, UniProt P08173, A203G/Y113C); assay: BRET assay of Gi1 activation in HEK-293 cells with hM4Di; assay type: cell-based; details: for EC50: BRET change 5 minutes after addition; for Gi1 activation (BRET ratio): cells with hM4Di versus cells without DREADDs
T1 construct: host or cells: HEK-293
T1 sequence (P08173 1-479 Y113C/A203G): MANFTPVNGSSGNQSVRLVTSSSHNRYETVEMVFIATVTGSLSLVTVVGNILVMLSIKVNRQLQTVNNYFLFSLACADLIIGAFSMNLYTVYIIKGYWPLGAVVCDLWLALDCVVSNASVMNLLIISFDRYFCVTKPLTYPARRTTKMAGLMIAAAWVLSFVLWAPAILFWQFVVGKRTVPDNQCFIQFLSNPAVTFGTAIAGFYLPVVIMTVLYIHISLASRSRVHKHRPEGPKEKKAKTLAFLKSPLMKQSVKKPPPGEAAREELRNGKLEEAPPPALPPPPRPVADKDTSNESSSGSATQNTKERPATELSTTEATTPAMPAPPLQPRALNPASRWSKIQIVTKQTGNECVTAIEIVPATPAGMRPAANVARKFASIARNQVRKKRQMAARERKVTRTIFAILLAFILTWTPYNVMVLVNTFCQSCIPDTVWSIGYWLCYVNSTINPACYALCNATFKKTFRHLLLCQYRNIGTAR
Experimental: (§1) Bioluminescence resonance energy transfer (“BRET”) assays were performed to detect receptor ligand-induced Gi/o protein activation. […] Forty-eight hours after transfection cells were harvested, washed and resuspended in phosphate-buffered saline (“PBS”). Approximately 200,000 cells/well were distributed in 96-well plates, and 5 μM Coelenterazine H (substrate for luciferase) was added to each well.
(§2) Results were calculated for the BRET change (BRET ratio for the corresponding compound minus BRET ratio in the absence of the compound) 5 minutes after the addition of the compounds.

[2] = biological target: T2, hM4Di (Go1) (Homo sapiens, UniProt P08173, A203G/Y113C); assay: BRET assay of Go1 activation in HEK-293 cells with hM4Di; assay type: cell-based; details: for EC50: BRET change 5 minutes after addition; for Go1 activation (BRET ratio): cells with hM4Di versus cells without DREADDs
T2 construct: host or cells: HEK-293
T2 sequence (P08173 1-479 Y113C/A203G): T1 sequence (P08173 1-479 Y113C/A203G)
Experimental: as §1, §2

[3] = system: D1-hM3Dq, D1-hM4Di or WT mice; assay: FDG-PET brain metabolic mapping (DREAMM); assay type: in vivo
Experimental: The study was set up as follows. Mice (D1-hM3Dq, D1-hM4Di or WT littermates) were habituated to experimenter handling and fasted 16 hours before the experiment. On the day of the experiment, mice received an IP injection of vehicle (1 ml/kg) and were placed back into their home cages. Ten minutes later, mice were injected (IP) with 11 MBq of 2-deoxy-2-[^18F]fluoro-D-glucose (FDG, Cardinal Health, Westmont, Ill.) and placed back into their home cages. After 30 minutes, mice were anesthetized with 1.5% isoflurane, placed on a custom-made bed of a NANOSCAN small animal PET/CT scanner (Mediso Medical Imaging Systems) and scanned for 20 min on a static acquisition protocol, followed by a CT scan. […] In all cases, the PET data were reconstructed and co-registered to an MRI template as described above. Voxel-based repeated measures with Student's t-test comparing baseline to drug were performed, and the resulting parametric images were filtered for statistically significant (p<0.05) clusters larger than 100 contiguous voxels. All statistical parametric mapping analyses were performed using MATLAB R2016 (Mathworks, Chicago, Ill.) and SPM12 (University College London).

[4] = biological target: T3, hM3Dq (Homo sapiens, UniProt P20309, A239G/Y149C); assay: Calcium accumulation assay (GCaMP6f) in HEK293 cells with hM3Dq; details: for hM3Dq activation (fluorescence, calcium accumulation): cells with hM3Dq versus cells without DREADDs
Experimental: The changes in fluorescence were read every 18 seconds for 5 minutes.

[5] = biological target: T3, hM3Dq; assay: Radioligand binding assay, [3H]clozapine competition, hM3Dq membranes; set-up: host or cells: HEK-293; details: for Ki: HEK-293 membranes, 2.5 nM [3H]clozapine, Cheng-Prusoff; for Binding to the tested DREADDs (in words): hM3Dq and hM4Di
Experimental: (§3) HEK-293 cells were transfected with 5 μg/dish of pAAV plasmids encoding for hM3Dq (available from Addgene, Cambridge, Mass., plasmid #89149), hM4Di (available from Addgene, Cambridge, Mass., plasmid #89150) or a control vector and harvested 48 hours after transfection. […] The protein was quantified by the bicinchoninic acid method. […] Microscint-20 scintillation liquid ([…]) was added to the filter plates, plates were incubated overnight at room temperature and radioactivity counts were determined in a MICROBETA^2™ (PerkinElmer, Waltham, Mass.) plate counter with an efficiency of 41%. Competition curves were fitted to a one binding site model and Ki values were calculated using the Cheng-Prusoff equation.

[6] = biological target: T4, hM4Di (Homo sapiens, UniProt P08173, A203G/Y113C); assay: Radioligand binding assay, [3H]clozapine competition, hM4Di membranes; set-up: host or cells: HEK-293; details: HEK-293 membranes, 2.5 nM [3H]clozapine, Cheng-Prusoff
T4 sequence (P08173 1-479 Y113C/A203G): T1 sequence (P08173 1-479 Y113C/A203G)
Experimental: as §3

[7] = system: DREADDs (hM3Dq, hM4Di) and endogenous clozapine-binding sites; assay: Autoradiography, [3H]clozapine displacement in brain sections of wild-type and transgenic DREADD mice; details: about 3.5 nM [3H]clozapine, WT
Experimental: Flash frozen brain tissue was sectioned (20 μm) on a cryostat and thaw mounted onto ethanol-washed glass slides. […] Following incubation, the slides were washed with an incubation buffer for 5 mins (2×) followed by a 30 second dip in ice-cold deionized H2O. The slides were then air-dried, placed in a […]™ (GE Healthcare, UK) autoradiography cassette, covered with a BAS-TR2025 Storage Phosphor Screen (GE Healthcare, UK), exposed for 3-5 days, and imaged using a phosphorimager.

[8] = system: mice with D1-hM3Dq receptors; assay: Locomotor activity assay (open-field test); assay type: in vivo; details: 0.01, 0.1, 1 mg/kg intraperitoneal; compared with clozapine
Experimental: Transgenic male and female mice (25-30 g, offspring of D1-Cre (heterozygous)×R26-hM3Dq/mCitrine (heterozygous) crossing) either heterozygous for both loci (CRE+, het het) or wild type for D1-Cre (CRE−, wt het) were tested for locomotor activity. The mice were injected (intraperitoneal) with the indicated dose of clozapine, compound I(g), or vehicle (buffered saline).

[9] = biological target: T4, hM4Di; assay: hM4Di-driven inhibition of light-evoked neuronal activation; assay type: in vivo; details: 0.1 mg/kg

T3 sequence (P20309 whole entry Y149C/A239G): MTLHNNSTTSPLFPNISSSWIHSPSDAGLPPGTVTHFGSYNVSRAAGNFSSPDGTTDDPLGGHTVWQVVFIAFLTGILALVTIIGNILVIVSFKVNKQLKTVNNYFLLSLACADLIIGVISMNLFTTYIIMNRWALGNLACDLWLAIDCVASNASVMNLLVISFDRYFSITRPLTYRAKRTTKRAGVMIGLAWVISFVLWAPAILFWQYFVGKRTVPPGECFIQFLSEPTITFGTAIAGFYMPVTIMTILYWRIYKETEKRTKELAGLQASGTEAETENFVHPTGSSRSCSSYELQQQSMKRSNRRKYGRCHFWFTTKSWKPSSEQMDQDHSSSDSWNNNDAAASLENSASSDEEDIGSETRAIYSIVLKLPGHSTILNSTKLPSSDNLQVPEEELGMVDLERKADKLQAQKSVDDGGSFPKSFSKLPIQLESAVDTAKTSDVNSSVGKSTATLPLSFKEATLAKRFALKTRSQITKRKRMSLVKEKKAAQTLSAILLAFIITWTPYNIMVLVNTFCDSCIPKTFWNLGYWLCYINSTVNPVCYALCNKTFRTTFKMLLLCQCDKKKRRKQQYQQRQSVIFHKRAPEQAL

SMILES	EC50 [1]	EC50 [2]	EC50 [4]	Ki [5]	Ki [6]	also measured
c1ccc2c(c1)N=C(N1CCNCC1)c1ccccc1N2 [Compound 21, reference compound]	2.7 nM	1.7 nM	1.66 nM			Brain metabolic activity (FDG-PET) ([3]; WT mice, 1 mg/kg): significant changes in brain metabolic activity; also recorded: decreased metabolic activity of multiple networks
CCN1CCN(C2=Nc3ccccc3Nc3ccc(F)cc32)CC1 [Compound I(b), 11-(4-Ethylpiperazin-1-yl)-2-fluoro-5H-dibenzo[b,e][1,4]diazepine]				33.5 nM	118 nM	
CCN1CCN(C2=Nc3cc(Cl)ccc3Nc3c(F)cccc32)CC1 [Compound I(h), 8-Chloro-11-(4-ethylpiperazin-1-yl)-4-fluoro-5H-dibenzo[b,e][1,4]diazepine]	0.073 nM	0.14 nM	2.64 nM	1.9 nM	3.6 nM	Displacement of [3H]clozapine binding ([7]; at 10 nM): selectively displaced [^3H]clozapine binding to DREADDs but not to endogenous sites; Displacement of [3H]clozapine binding ([7]; at 1 μM): completely displaced [^3H]clozapine binding to both DREADDs and endogenous clozapine-binding sites; Gi1 activation (BRET ratio) [1]: activate Gi1; Go1 activation (BRET ratio) [2]: activate Go1; Reduction of locomotor activity (distance traveled) [8]: more effective than clozapine at reducing locomotor activity; Brain metabolism change (DREAMM) ([3]; D1-hM3Dq mice, 0.1 mg/kg IP): decreased metabolism; Brain metabolism change (DREAMM) ([3]; D1-hM4Di mice, 0.1 mg/kg IP): increased metabolism; Brain metabolic changes (FDG-PET) ([3]; WT mice, 0.1 mg/kg IP): no significant brain metabolic changes; Inhibition of light-evoked neuronal activation [9]: rapid and potent hM4Di-driven inhibition; Binding to the tested DREADDs (in words) [5]: especially effective at binding the tested DREADDs; hM3Dq activation (fluorescence, calcium accumulation) [4]: effective at activating hM3Dq
CCN1CCN(C2=Nc3cc(Cl)ccc3Nc3cc(F)ccc32)CC1 [Compound I(c), 8-Chloro-11-(4-ethylpiperazin-1-yl)-3-fluoro-5H-dibenzo[b,e][1,4]diazepine]				51.4 nM	51.3 nM	
CCN1CCN(C2=Nc3cc(F)ccc3Nc3ccccc32)CC1 [Compound I(f), 11-(4-Ethylpiperazin-1-yl)-8-fluoro-5H-dibenzo[b,e][1,4]diazepine]				23.7 nM	12.9 nM	
CCN1CCN(C2=Nc3ccccc3Nc3cc(F)ccc32)CC1 [Compound I(d), 11-(4-Ethylpiperazin-1-yl)-3-fluoro-5H-dibenzo[b,e][1,4]diazepine]				101 nM	149 nM	
CCN1CCN(C2=Nc3cc(Cl)ccc3Nc3ccc(F)cc32)CC1 [Compound I(a), 8-chloro-11-(4-ethylpiperazin-1-yl)-2-fluoro-5H-dibenzo[b,e][1,4]diazepine]				10.5 nM	23.5 nM	Recruitment of whole-brain functional networks (FDG-PET) ([3]; D1-hM3Dq and D1-hM4Di mice, 0.1 mg/kg, n=4 per condition): opposing and differential recruitment of whole-brain functional networks
CCN1CCN(C2=Nc3cc(Cl)ccc3Nc3cccc(F)c32)CC1 [Compound I(g), 8-Chloro-11-(4-ethylpiperazin-1-yl)-1-fluoro-5H-dibenzo[b,e][1,4]diazepine]	0.24 nM	0.8 nM	5.15 nM	1.7 nM	8.7 nM	Gi1 activation (BRET ratio) [1]: activate Gi1; Go1 activation (BRET ratio) [2]: activate Go1; Reduction of locomotor activity (distance traveled) [8]: more effective than clozapine at reducing locomotor activity; Binding to the tested DREADDs (in words) [5]: especially effective at binding the tested DREADDs; hM3Dq activation (fluorescence, calcium accumulation) [4]: effective at activating hM3Dq
[2H]C([2H])(C)N1CCN(C2=Nc3cc(Cl)ccc3Nc3ccccc32)CC1 [Compound 13, reference compound]	0.067 nM	0.063 nM	1.43 nM			
CCN1CCN(C2=Nc3ccccc3Nc3cccc(F)c32)CC1 [Compound I(e), 11-(4-Ethylpiperazin-1-yl)-1-fluoro-5H-dibenzo[b,e][1,4]diazepine]				4.8 nM	14.2 nM	
C[N+]1([O-])CCN(C2=Nc3cc(Cl)ccc3Nc3ccccc32)CC1 [CNO, clozapine n-oxide, reference compound]	13 nM	3.1 nM				EC50 ([4]; read-out: EC50 value for hM3Dq, mean, calcium accumulation, fluorescence): 11.3 nM
